Earlier results in publication PMC3545186 (Biochemical Pharmacology, 2013).

What was measured:
[1] = cited from earlier work
[2] = Asian breast cancer patient population; cited from earlier work

Row | Compound | higher plasma concentrations in Abcb1a/1b knockout mice compared to wild type (WT) mice [1] | exposure in individuals homozygous mutant for ABCB1 C1236T, G2677T/A and C3435T [2]
1 | COc1cc([C@@H]2c3cc4c(cc3[C@@H](O[C@@H]3O[C@@H]5CO[C@@H](C)O[C@H]5[C@H](O)[C@H]3O)[C@H]3COC(=O)[C@H]23)OCO4)cc(OC)c1O [etoposide] | 1.4 fold | 
2 | COc1cccc2c1C(=O)c1c(O)c3c(c(O)c1C2=O)C[C@@](O)(C(=O)CO)C[C@@H]3O[C@H]1C[C@H](N)[C@H](O)[C@H](C)O1 [doxorubicin] |  | significantly higher exposure
